The source of these data is PubChem BioAssay (NCI).

SMILES strings stand for the structures.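 In this assay, cells in 96-well plates receive the compound at five concentrations for 48 hours. Endpoints are linearly interpolated between the surrounding concentrations. The concentration for 50% growth inhibition is given as GI50. TGI marks complete inhibition of growth.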

Assay in all cases: inhibition of tumour cell growth, NCI panel, 48 h
Assay [1] relates to MOLT-4 leukemia.
Assay [2] deals with K-562 leukemia.
Assay [3] relates to SK-MEL-28 melanoma.
Assay [4] deals with PC-3 prostate.
Assay [5] concerns CCRF-CEM leukemia.
For assay [6], the system named is NCI/ADR-RES ovarian.
Assay [7] concerns OVCAR-4 ovarian.
The test system of assay [8] is OVCAR-3 ovarian.
The subject of assay [9] is NCI-H226 lung.
In assay [10] the test system is HT29 colon.

As to `N#CC1=C(N)Oc2c(ccc3ccccc23)C1c1ccccc1Cl` (centres undefined), the GI50 in [1] is 0.447 µM; in assay [2], 0.0796 µM; in assay [3], 1.92 µM; in [4], 0.317 µM; in [5] it was 0.269 µM; in assay [6], 0.133 µM. The GI50 in assay [7] was 1.13 µM; in assay [8], 0.197 µM; in [9], 1.52 µM; in [10], 0.362 µM. Moreover, the TGI in assay [1] was 17.8 µM; in assay [2], > 43.5 µM; in [3] it was 22.9 µM; in assay [4], 16.2 µM; in assay [5] it was 17.2 µM; in assay [6] it was 5.62 µM. Besides, the TGI in assay [7] stood at 20.4 µM; in [8], 0.493 µM; in assay [9], 13.2 µM; in [10], 12.6 µM.
As for `COc1cc(C2C3=C(COC3=O)N(CCO)c3cc4c(cc32)CCC4)cc(OC)c1OC` (centres undefined), the GI50 in assay [1] was 0.147 µM; in [2], 0.0955 µM; in [3] it was 1.24 µM; in assay [4], 0.112 µM; in assay [5], 0.13 µM; in [6] it was 0.709 µM. Besides, the GI50 in [7] was 0.14 µM; in assay [8], 0.0595 µM; in assay [9] it was 0.417 µM; in [10], 0.0975 µM. In addition, the TGI in [1] is > 32.5 µM; in assay [2], > 10.4 µM; in [3] it was > 32.5 µM; in [4] it was > 32.5 µM; in assay [5] it was > 32.5 µM; in assay [6] it was 4.45 µM. Also, the TGI in assay [7] was > 20.9 µM; in assay [8], 0.129 µM; in [9] it was > 32.5 µM.
With `CCOC(=O)C(Cc1ccc(N(CCCl)CCCl)cc1)NC(=O)C(CC(C)C)NC(C)=O` (centres undefined), the GI50 was 0.302 µM in assay [1]; 1.19 µM in [2]; 1.61 µM in assay [3]; 1.3 µM in assay [4]; 0.232 µM in [5]; 2.14 µM in assay [6]. Also, the GI50 was 1.33 µM in assay [7], 0.332 µM in assay [8], 3.79 µM in [9] and 1.28 µM in [10]. The TGI in assay [1] came out at 2.4 µM; in assay [2], 7.96 µM; in assay [3], 3.82 µM; in assay [4], 5.4 µM; in assay [5] it was 3.31 µM; in assay [6], 16.9 µM. The TGI worked out at 3.97 µM in assay [7], 1.4 µM in [8], 10.7 µM in assay [9] and 5.68 µM in [10].
Take `O=C(CN1C(=O)c2ccccc2C1=O)NC1(C(=O)O)CCCC1`: the TGI in assay [1], in [2], in assay [3], in assay [4], in assay [5] and in [6] was > 100 µM each time. The TGI in assay [7], in [8], in assay [9] and in [10] was > 100 µM in each case.
Regarding `N#Cc1c(-c2ccc(Cl)cc2)n([O-])c2ccccc2[n+]1=O`, the GI50 was 2.31 µM in assay [1]; 2 µM in assay [2]; 44.8 µM in assay [3]; 3.26 µM in [4]; 2.63 µM in assay [5]; 4.05 µM in [6]. For the same compound, the GI50 in [7] is 2.94 µM; in [8], 1.27 µM; in [9], 18.1 µM; in [10], 17.2 µM. For the same compound, the TGI in [1] is 4.77 µM; in assay [2], 4.01 µM; in [3], > 100 µM; in assay [4], 13 µM; in assay [5], 8.2 µM; in [6], 16.1 µM. For the same compound, the TGI in assay [7] came out at 8.82 µM; in [8], 2.88 µM; in assay [9] it was 46.7 µM; in [10] it was 42.2 µM.
Consider `CC[N+]1(C)CCC(O)(/C=C/c2ccccc2)C(C(=O)/C=C/c2ccccc2)C1` (centres undefined), for which the TGI in assay [1] is 7.11 µM; in assay [2], 10.8 µM; in assay [3], 18.9 µM; in [4], 29.6 µM; in assay [5], 10.8 µM; in assay [6], > 100 µM. For the same compound, the TGI came out at 43.7 µM in assay [7], 28 µM in assay [8], 29.7 µM in [9] and 27.5 µM in assay [10].
In the case of `Cn1cnc2nc(Cl)nc(Cl)c21`, the GI50 in [1] was 5.26 µM; in assay [2], 0.713 µM; in assay [3] it was 4.35 µM; in [4] it was 0.594 µM; in assay [5] it was 0.84 µM; in assay [6], 2.76 µM. Besides, the GI50 is 4.7 µM in assay [7], 1.84 µM in assay [8], 12.4 µM in [9] and 0.365 µM in assay [10]. Also, the TGI in assay [1] came to 36.2 µM; in [2], 94.7 µM; in assay [3], 16.5 µM; in [4], 12.8 µM; in [5], 22.1 µM; in assay [6] it was 13 µM. The TGI came to 17.6 µM in assay [7], 6.12 µM in assay [8], 31.4 µM in [9] and 12.6 µM in assay [10].
